Test results reported in PubChem BioAssay (NCI).
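Method: 48-hour compound exposure of cells in 96-well plates, five concentrations, linear interpolation of endpoints. GI50 marks 50% less growth. TGI marks complete inhibition of growth.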

Experiments:
Assay in all cases: NCI tumour cell line growth inhibition, 48 h
EKVX NSCLC = test system: EKVX NSCLC
HOP-62 NSCLC = test system: HOP-62 NSCLC
NCI-H23 lung = test system: NCI-H23 lung
KM20L2 colon = test system: KM20L2 colon
RXF 393 renal = test system: RXF 393 renal
RPMI-8226 leukemia = test system: RPMI-8226 leukemia
U251 CNS = test system: U251 CNS
M14 melanoma = test system: M14 melanoma
HOP-18 NSCLC = test system: HOP-18 NSCLC
SK-MEL-5 melanoma = test system: SK-MEL-5 melanoma
DLD-1 colon = test system: DLD-1 colon
CAKI-1 renal = test system: CAKI-1 renal
LOX IMVI melanoma = test system: LOX IMVI melanoma
HL-60(TB) leukemia = test system: HL-60(TB) leukemia
SW-620 colon = test system: SW-620 colon
SNB-78 CNS = test system: SNB-78 CNS
SR leukemia = test system: SR leukemia
NCI-H522 lung = test system: NCI-H522 lung
OVCAR-5 ovarian = test system: OVCAR-5 ovarian
NCI-H460 lung = test system: NCI-H460 lung
KM12 colon = test system: KM12 colon
HT29 colon = test system: HT29 colon
OVCAR-4 ovarian = test system: OVCAR-4 ovarian
ACHN renal = test system: ACHN renal
DMS 114 small cell lung = test system: DMS 114 small cell lung
786-0 renal = test system: 786-0 renal
UACC-257 melanoma = test system: UACC-257 melanoma
OVCAR-8 ovarian = test system: OVCAR-8 ovarian
XF 498 CNS = test system: XF 498 CNS
IGROV1 ovarian = test system: IGROV1 ovarian
SNB-75 CNS = test system: SNB-75 CNS
CCRF-CEM leukemia = test system: CCRF-CEM leukemia
OVCAR-3 ovarian = test system: OVCAR-3 ovarian
HCT-116 colon = test system: HCT-116 colon
NCI-H226 lung = test system: NCI-H226 lung
HOP-92 NSCLC = test system: HOP-92 NSCLC
UACC-62 melanoma = test system: UACC-62 melanoma
MOLT-4 leukemia = test system: MOLT-4 leukemia
RXF-631 renal = test system: RXF-631 renal
MALME-3M melanoma = test system: MALME-3M melanoma
TK-10 renal = test system: TK-10 renal
SF-295 CNS = test system: SF-295 CNS
HCT-15 colon = test system: HCT-15 colon
HCC-2998 colon = test system: HCC-2998 colon
UO-31 renal = test system: UO-31 renal
K-562 leukemia = test system: K-562 leukemia
SF-539 CNS = test system: SF-539 CNS
LXFL 529 NSCLC = test system: LXFL 529 NSCLC
SNB-19 CNS = test system: SNB-19 CNS
A549 NSCLC = test system: A549 NSCLC
COLO 205 colon = test system: COLO 205 colon
DMS 273 small cell lung = test system: DMS 273 small cell lung
SK-MEL-2 melanoma = test system: SK-MEL-2 melanoma
SF-268 CNS = test system: SF-268 CNS
SK-OV-3 ovarian = test system: SK-OV-3 ovarian
SN12C renal = test system: SN12C renal
SK-MEL-28 melanoma = test system: SK-MEL-28 melanoma

c1cc[c]([Sn][c]2ccccc2)cc1
GI50 (EKVX NSCLC): 28.3 µM
TGI (EKVX NSCLC): > 61.2 µM
GI50 (HOP-62 NSCLC): 53.1 µM
TGI (HOP-62 NSCLC): > 100 µM
GI50 (NCI-H23 lung): 15 µM
TGI (NCI-H23 lung): 23.3 µM
GI50 (KM20L2 colon): 13.4 µM
TGI (KM20L2 colon): 18.8 µM
GI50 (RXF 393 renal): 12.4 µM
TGI (RXF 393 renal): 36.5 µM
GI50 (RPMI-8226 leukemia): 19.8 µM
TGI (RPMI-8226 leukemia): 49.2 µM
GI50 (U251 CNS): 19.4 µM
TGI (U251 CNS): 42 µM
GI50 (M14 melanoma): 24.4 µM
TGI (M14 melanoma): 56.7 µM
GI50 (HOP-18 NSCLC): 21.6 µM
TGI (HOP-18 NSCLC): 48.8 µM
GI50 (SK-MEL-5 melanoma): 16.8 µM
TGI (SK-MEL-5 melanoma): 31.9 µM
GI50 (DLD-1 colon): 15.4 µM
TGI (DLD-1 colon): 23.2 µM
GI50 (CAKI-1 renal): 24 µM
TGI (CAKI-1 renal): > 92.3 µM
GI50 (LOX IMVI melanoma): 20.6 µM
TGI (LOX IMVI melanoma): 42 µM
GI50 (HL-60(TB) leukemia): 20.5 µM
TGI (HL-60(TB) leukemia): 41.9 µM
GI50 (SW-620 colon): 21.6 µM
TGI (SW-620 colon): 45 µM
GI50 (SNB-78 CNS): 39.8 µM
TGI (SNB-78 CNS): > 100 µM
GI50 (SR leukemia): 18.6 µM
TGI (SR leukemia): 45.3 µM
GI50 (NCI-H522 lung): 14.1 µM
TGI (NCI-H522 lung): 32.7 µM
GI50 (OVCAR-5 ovarian): 15 µM
TGI (OVCAR-5 ovarian): > 57.5 µM
GI50 (NCI-H460 lung): 14 µM
TGI (NCI-H460 lung): 20.2 µM
GI50 (KM12 colon): 13.6 µM
TGI (KM12 colon): 19.2 µM
GI50 (HT29 colon): 20.2 µM
TGI (HT29 colon): 37 µM
GI50 (OVCAR-4 ovarian): 24 µM
TGI (OVCAR-4 ovarian): 55.2 µM
GI50 (ACHN renal): 27.2 µM
TGI (ACHN renal): 69.8 µM
GI50 (DMS 114 small cell lung): 32.7 µM
TGI (DMS 114 small cell lung): > 100 µM
GI50 (786-0 renal): 17.4 µM
TGI (786-0 renal): 31.6 µM
GI50 (UACC-257 melanoma): 29.6 µM
TGI (UACC-257 melanoma): > 72.9 µM
GI50 (OVCAR-8 ovarian): 24 µM
TGI (OVCAR-8 ovarian): 58.8 µM
GI50 (XF 498 CNS): 13.3 µM
TGI (XF 498 CNS): 17.9 µM
GI50 (IGROV1 ovarian): 38.9 µM
TGI (IGROV1 ovarian): > 100 µM
GI50 (SNB-75 CNS): 30.2 µM
TGI (SNB-75 CNS): > 100 µM
GI50 (CCRF-CEM leukemia): 21.9 µM
TGI (CCRF-CEM leukemia): 62.7 µM
GI50 (OVCAR-3 ovarian): 17.8 µM
TGI (OVCAR-3 ovarian): 35 µM
GI50 (HCT-116 colon): 18.2 µM
TGI (HCT-116 colon): 37.7 µM
GI50 (NCI-H226 lung): 21.8 µM
TGI (NCI-H226 lung): 54.8 µM
GI50 (HOP-92 NSCLC): 19 µM
TGI (HOP-92 NSCLC): 47.5 µM
GI50 (UACC-62 melanoma): 21 µM
TGI (UACC-62 melanoma): 47 µM
GI50 (MOLT-4 leukemia): 19.2 µM
TGI (MOLT-4 leukemia): 60.3 µM
GI50 (RXF-631 renal): 35.6 µM
TGI (RXF-631 renal): > 100 µM
GI50 (MALME-3M melanoma): 23.2 µM
TGI (MALME-3M melanoma): 47.7 µM
GI50 (TK-10 renal): 20.1 µM
TGI (TK-10 renal): 51.2 µM
GI50 (SF-295 CNS): 27.8 µM
TGI (SF-295 CNS): 69.7 µM
GI50 (HCT-15 colon): 20.5 µM
TGI (HCT-15 colon): 41 µM
GI50 (HCC-2998 colon): 13.8 µM
TGI (HCC-2998 colon): 18.3 µM
GI50 (UO-31 renal): 19.4 µM
TGI (UO-31 renal): 38.5 µM
GI50 (K-562 leukemia): 25.2 µM
TGI (K-562 leukemia): 69 µM
GI50 (SF-539 CNS): 23.3 µM
TGI (SF-539 CNS): 45.5 µM
GI50 (LXFL 529 NSCLC): 16.8 µM
TGI (LXFL 529 NSCLC): 33.6 µM
GI50 (SNB-19 CNS): 20 µM
TGI (SNB-19 CNS): 61 µM
GI50 (A549 NSCLC): 21.5 µM
TGI (A549 NSCLC): 51.5 µM
GI50 (COLO 205 colon): 24.3 µM
TGI (COLO 205 colon): 59.4 µM
GI50 (DMS 273 small cell lung): 16.8 µM
TGI (DMS 273 small cell lung): 35.9 µM
GI50 (SK-MEL-2 melanoma): 15.9 µM
TGI (SK-MEL-2 melanoma): 37.7 µM
GI50 (SF-268 CNS): 14.5 µM
TGI (SF-268 CNS): 25 µM
GI50 (SK-OV-3 ovarian): 26.4 µM
TGI (SK-OV-3 ovarian): 90.9 µM
GI50 (SN12C renal): 20 µM
TGI (SN12C renal): 42.1 µM
GI50 (SK-MEL-28 melanoma): 14.5 µM
TGI (SK-MEL-28 melanoma): 36 µM
